Here are results for 22 compounds from US11807644B2 (PMV Pharmaceuticals, Inc., priority 2020, dated 2023).

For one assay, the target named is T1, recombinant His-tag Y220C p53 DBD protein (Homo sapiens, UniProt P04637, Y220C).
T1 construct: recombinant His-tag Y220C p53 DBD protein (amino acids #˜94-312)
Briefly: In vitro DNA binding activity assay (TR-FRET): binding of His-tag Y220C p53 DBD to biotin-labeled consensus DNA. The note with it: SC150 = concentration to increase DNA binding by […], His-tag Y220C p53 DBD, biotin-labeled consensus DNA. The class given is biochemical.
As for `CN(C)CCn1ccc(C(=O)NCc2nc(-c3cc4c(N[C@@H]5CCN(C)C[C@@H]5F)cccc4n3CC(F)(F)F)no2)c1` [Compound 229B, 1-[2-(dimethylamino)ethyl]-N-{[3-(4-{[(3S,4R)-3-fluoro-1-methylpiperidin-4-yl]amino}-1-(2,2,2-trifluoroethyl)-1H-indol-2-yl)-1,2,4-oxadiazol-5-yl]methyl}-1H-pyrrole-3-carboxamide], the “Y220C SC150 (μM)” value is “* (* = 0 μM ≤ SC150 < 0.1 μM)”.

In the case of `CN1CC[C@H](F)[C@H](Nc2cccc3c2cc(-c2noc(CNC(=O)c4ccn(C5(C)CCOCC5)c4)n2)n3CC(F)(F)F)C1` [Compound 403B, N-{[3-(4-{[(3R,4S)-4-fluoro-1-methylpiperidin-3-yl]amino}-1-(2,2,2-trifluoroethyl)-1H-indol-2-yl)-1,2,4-oxadiazol-5-yl]methyl}-1-(4-methyloxan-4-yl)-1H-pyrrole-3-carboxamide], the “Y220C SC150 (μM)” value is “* (* = 0 μM ≤ SC150 < 0.1 μM)”.

As to `CN1CC[C@@H](Nc2cccc3c2cc(-c2noc(CNC(=O)c4cn5c(n4)CCCC5)n2)n3CC(F)(F)F)[C@@H](F)C1` [Compound 541B, N-{[3-(4-{[(3S,4R)-3-fluoro-1-methylpiperidin-4-yl]amino}-1-(2,2,2-trifluoroethyl)-1H-indol-2-yl)-1,2,4-oxadiazol-5-yl]methyl}-5H,6H, 7H,8H-imidazo[1,2-a]pyridine-2-carboxamide], the “Y220C SC150 (μM)” value was “* (* = 0 μM ≤ SC150 < 0.1 μM)”.

As for `CN1CC[C@@H](Nc2cccc3c2cc(-c2noc(CNC(=O)c4cnc(C(C)(C)C)s4)n2)n3CC(F)(F)F)[C@@H](F)C1` [Compound 437B, 2-tert-butyl-N-{[3-(4-{[(3S,4R)-3-fluoro-1-methylpiperidin-4-yl]amino}-1-(2,2,2-trifluoroethyl)-1H-indol-2-yl)-1,2,4-oxadiazol-5-yl]methyl}-1,3-thiazole-5-carboxamide], the “Y220C SC150 (μM)” value is recorded as “* (* = 0 μM ≤ SC150 < 0.1 μM)”.

For the compound `CN1CC[C@@H](Nc2cccc3c2cc(-c2noc(CNC(=O)c4cnn(C5CCCCC5)c4)n2)n3CC(F)(F)F)[C@@H](F)C1` [Compound 326B, 1-cyclohexyl-N-{[3-(4-{[(3S,4R)-3-fluoro-1-methylpiperidin-4-yl]amino}-1-(2,2,2-trifluoroethyl)-1H-indol-2-yl)-1,2,4-oxadiazol-5-yl]methyl}-1H-pyrazole-4-carboxamide], the “Y220C SC150 (μM)” value is “* (* = 0 μM ≤ SC150 < 0.1 μM)”.

As to `CC(C)n1cnc(C(=O)NCc2nc(-c3cc4c(N[C@@H]5CCN(C)C[C@@H]5F)cccc4n3CC(F)(F)F)no2)c1` [Compound 232B, N-{[3-(4-{[(3S,4R)-3-fluoro-1-methylpiperidin-4-yl]amino}-1-(2,2,2-trifluoroethyl)-1H-indol-2-yl)-1,2,4-oxadiazol-5-yl]methyl}-1-(propan-2-yl)-1H-imidazole-4-carboxamide], the “Y220C SC150 (μM)” value is listed as “* (* = 0 μM ≤ SC150 < 0.1 μM)”.

On to `COC(=O)c1ccc(C(=O)NCc2nnc(-c3cc4c(NC5CCN(C)CC5)cccc4n3CC(F)(F)F)s2)cc1` [Compound 39B, methyl 4-{[(5-{4-[(1-methylpiperidin-4-yl)amino]-1-(2,2,2-trifluoroethyl)-1H-indol-2-yl}-1,3,4-thiadiazol-2-yl)methyl]carbamoyl}benzoate], for which the “Y220C SC150 (μM)” value is recorded as “* (* = 0 μM ≤ SC150 < 0.1 μM)”.

With `CN1CC[C@@H](Nc2cccc3c2cc(-c2noc(CNC(=O)c4csc(N)c4)n2)n3CC(F)(F)F)[C@@H](F)C1` [Compound 429B, 5-amino-N-{[3-(4-{[(3S,4R)-3-fluoro-1-methylpiperidin-4-yl]amino}-1-(2,2,2-trifluoroethyl)-1H-indol-2-yl)-1,2,4-oxadiazol-5-yl]methyl}thiophene-3-carboxamide], the “Y220C SC150 (μM)” value is recorded as “* (* = 0 μM ≤ SC150 < 0.1 μM)”.

As for `CN1CC[C@@H](Nc2cccc3c2cc(-c2noc(CNC(=O)C4CCC4)n2)n3CC(F)(F)F)[C@@H](F)C1` [Compound 222B, N-{[3-(4-{[(3S,4R)-3-fluoro-1-methylpiperidin-4-yl]amino}-1-(2,2,2-trifluoroethyl)-1H-indol-2-yl)-1,2,4-oxadiazol-5-yl]methyl}cyclobutanecarboxamide], the “Y220C SC150 (μM)” value is listed as “* (* = 0 μM ≤ SC150 < 0.1 μM)”.

Turning to `COCC(C)(C)n1ccc(C(=O)NCc2nc(-c3cc4c(N[C@H]5CN(C)CC[C@H]5F)cccc4n3CC(F)(F)F)no2)c1` [Compound 418B, N-{[3-(4-{[(3S,4R)-4-fluoro-1-methylpiperidin-3-yl]amino}-1-(2,2,2-trifluoroethyl)-1H-indol-2-yl)-1,2,4-oxadiazol-5-yl]methyl}-1-(1-methoxy-2-methylpropan-2-yl)-1H-pyrrole-3-carboxamide], the “Y220C SC150 (μM)” value is “* (* = 0 μM ≤ SC150 < 0.1 μM)”.

In the case of `CN1CC[C@@H](Nc2cccc3c2cc(-c2noc(CNC(=O)c4ccn(CCC(=O)O)c4)n2)n3CC(F)(F)F)[C@@H](F)C1` [Compound 248B, 3-[3-({[3-(4-{[(3S,4R)-3-fluoro-1-methylpiperidin-4-yl]amino}-1-(2,2,2-trifluoroethyl)-1H-indol-2-yl)-1,2,4-oxadiazol-5-yl]methyl}carbamoyl)-1H-pyrrol-1-yl]propanoic acid], the “Y220C SC150 (μM)” value is given as “* (* = 0 μM ≤ SC150 < 0.1 μM)”.

Take `C[C@@H]1C[C@H]1C(=O)NCc1nc(-c2cc3c(NC4CCN(C)CC4)cccc3n2CC(F)(F)F)no1` (racemic) [Compound 157B, (+/−)-(1R,2R)-2-methyl-N-[(3-{4-[(1-methylpiperidin-4-yl)amino]-1-(2,2,2-trifluoroethyl)-1H-indol-2-yl}-1,2,4-oxadiazol-5-yl)methyl]cyclopropane-1-carboxamide]: the “Y220C SC150 (μM)” value is “* (* = 0 μM ≤ SC150 < 0.1 μM)”.

Regarding `Cn1cc(C(=O)NCc2nc(-c3cc4c(N[C@@H]5CCN(C(C)(C)C)C[C@@H]5F)cccc4n3CC(F)(F)F)no2)cn1` [Compound 405B, N-{[3-(4-{[(3S,4R)-1-tert-butyl-3-fluoropiperidin-4-yl]amino}-1-(2,2,2-trifluoroethyl)-1H-indol-2-yl)-1,2,4-oxadiazol-5-yl]methyl}-1-methyl-1H-pyrazole-4-carboxamide], the “Y220C SC150 (μM)” value is recorded as “* (* = 0 μM ≤ SC150 < 0.1 μM)”.

As to `COCc1cc(C(=O)NCc2nc(-c3cc4c(N[C@@H]5CCN(C)C[C@@H]5F)cccc4n3CC(F)(F)F)no2)cc(C)n1` [Compound 551B, N-{[3-(4-{[(3S,4R)-3-fluoro-1-methylpiperidin-4-yl]amino}-1-(2,2,2-trifluoroethyl)-1H-indol-2-yl)-1,2,4-oxadiazol-5-yl]methyl}-2-(methoxymethyl)-6-methylpyridine-4-carboxamide], the “Y220C SC150 (μM)” value is recorded as “* (* = 0 μM ≤ SC150 < 0.1 μM)”.

Turning to `COc1cccc(C(=O)NCc2nnc(-c3cc4c(NC5CCN(C)CC5)cccc4n3CC(F)(F)F)s2)c1` [Compound 64B, 3-methoxy-N-[(5-{4-[(1-methylpiperidin-4-yl)amino]-1-(2,2,2-trifluoroethyl)-1H-indol-2-yl}-1,3,4-thiadiazol-2-yl)methyl]benzamide], the “Y220C SC150 (μM)” value was “* (* = 0 μM ≤ SC150 < 0.1 μM)”.

On to `CN1CC[C@@H](Nc2cccc3c2cc(-c2noc(CNC(=O)c4csc(N5CC6CC(C5)O6)n4)n2)n3CC(F)(F)F)[C@@H](F)C1` [Compound 525B], for which the “Y220C SC150 (μM)” value is listed as “** (** = 0.1 μM ≤ SC150 < 0.5 μM)”.

In the case of `CN1CC[C@@H](Nc2cccc3c2cc(-c2noc(CNC(=O)c4ccccc4)n2)n3CC(F)(F)F)[C@@H](F)C1` (racemic) [Compound 172B, (+/−)-N-{[3-(4-{[(3R,4S)-3-fluoro-1-methylpiperidin-4-yl]amino}-1-(2,2,2-trifluoroethyl)-1H-indol-2-yl)-1,2,4-oxadiazol-5-yl]methyl}benzamide], the “Y220C SC150 (μM)” value is listed as “* (* = 0 μM ≤ SC150 < 0.1 μM)”.

As for `CN1CC[C@@H](Nc2cccc3c2cc(-c2noc(CNC(=O)[C@@H]4C[C@@H]4C#N)n2)n3CC(F)(F)F)[C@@H](F)C1` (mixture of isomers) [Compound 195B, (1RS,2SR)-2-cyano-N-{[3-(4-{[(3S,4R)-3-fluoro-1-methylpiperidin-4-yl]amino}-1-(2,2,2-trifluoroethyl)-1H-indol-2-yl)-1,2,4-oxadiazol-5-yl]methyl}cyclopropane-1-carboxamide], the “Y220C SC150 (μM)” value is given as “* (* = 0 μM ≤ SC150 < 0.1 μM)”.

For the compound `CN1CCC(Nc2cccc3c2cc(-c2noc(CNC(=O)[C@@H]4C[C@H]4F)n2)n3CC(F)(F)F)CC1` (racemic) [Compound 145B, (1S,2R)-2-fluoro-N-[(3-{4-[(1-methylpiperidin-4-yl)amino]-1-(2,2,2-trifluoroethyl)-1H-indol-2-yl}-1,2,4-oxadiazol-5-yl)methyl]cyclopropane-1-carboxamide], the “Y220C SC150 (μM)” value is “* (* = 0 μM ≤ SC150 < 0.1 μM)”.

With `CN1CC[C@@H](Nc2cccc3c2cc(-c2noc(CNC(=O)c4ccnc(C(C)(C)O)c4)n2)n3CC(F)(F)F)[C@@H](F)C1` [Compound 550B, N-{[3-(4-{[(3S,4R)-3-fluoro-1-methylpiperidin-4-yl]amino}-1-(2,2,2-trifluoroethyl)-1H-indol-2-yl)-1,2,4-oxadiazol-5-yl]methyl}-2-(2-hydroxypropan-2-yl)pyridine-4-carboxamide], the “Y220C SC150 (μM)” value was “* (* = 0 μM ≤ SC150 < 0.1 μM)”.

Take `CC(CF)n1cc(C(=O)NCc2nc(-c3cc4c(N[C@@H]5CCN(C)C[C@@H]5F)cccc4n3CC(F)(F)F)no2)cn1` (stereo partly drawn) [Compound 303B, N-{[3-(4-{[(3S,4R)-3-fluoro-1-methylpiperidin-4-yl]amino}-1-(2,2,2-trifluoroethyl)-1H-indol-2-yl)-1,2,4-oxadiazol-5-yl]methyl}-1-(1-fluoropropan-2-yl)-1H-pyrazole-4-carboxamide]: the “Y220C SC150 (μM)” value was “* (* = 0 μM ≤ SC150 < 0.1 μM)”.

The assay is the same for the next values; noted with them: concentration to increase DNA binding by […], incubated at either 27° C. or 29° C. for 60 min.
For `COc1cc(S(C)(=O)=O)ccc1NCc1ccc(-c2cc3c(N[C@H]4CCN(C)C[C@H]4F)cccc3n2CC(F)(F)F)cc1` (racemic) [Compound 43A, (+/−)-N-[(3R,4S)-3-fluoro-1-methylpiperidin-4-yl]-2-(4-{[(4-methanesulfonyl-2-methoxyphenyl)amino]methyl}phenyl)-1-(2,2,2-trifluoroethyl)-1H-indol-4-amine], the “SC150 (μM)” value is “+ (+ = 0 μM ≤ SC150 < 2 μM)”.
